Columns and labels:
[1] = system: Tyrosine-protein kinase ABL1 (Homo sapiens), P00519 [F317I]; test: Inhibition of phosphorylated ABL1 F317I mutant (unknown origin) assessed as residual activity at 100 nM by KINOMEscan analysis relative to control
[2] = molecular target: T1, Serine/threonine-protein kinase DCLK3 (Homo sapiens) (UniProt Q9C098); test: Inhibition of DCAMKL3 (unknown origin) assessed as residual activity at 100 nM by KINOMEscan analysis relative to control
T1 sequence (whole entry): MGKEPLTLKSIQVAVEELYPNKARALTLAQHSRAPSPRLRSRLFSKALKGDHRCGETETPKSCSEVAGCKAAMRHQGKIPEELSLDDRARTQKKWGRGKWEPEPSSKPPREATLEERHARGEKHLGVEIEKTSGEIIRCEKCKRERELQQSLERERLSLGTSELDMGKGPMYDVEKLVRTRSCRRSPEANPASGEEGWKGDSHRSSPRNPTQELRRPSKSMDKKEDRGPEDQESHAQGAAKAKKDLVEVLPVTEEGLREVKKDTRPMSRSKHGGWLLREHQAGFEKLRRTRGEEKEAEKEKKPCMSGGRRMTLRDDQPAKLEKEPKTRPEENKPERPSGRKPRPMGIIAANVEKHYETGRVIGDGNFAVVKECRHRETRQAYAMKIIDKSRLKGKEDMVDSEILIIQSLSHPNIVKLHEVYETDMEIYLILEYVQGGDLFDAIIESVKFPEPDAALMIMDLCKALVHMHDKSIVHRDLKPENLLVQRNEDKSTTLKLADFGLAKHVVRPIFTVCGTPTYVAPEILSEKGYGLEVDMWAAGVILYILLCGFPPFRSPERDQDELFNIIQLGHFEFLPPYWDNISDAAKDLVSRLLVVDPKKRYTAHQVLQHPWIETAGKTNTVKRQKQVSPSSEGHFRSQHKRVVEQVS

[3] = molecular target: T2, Ephrin type-B receptor 1 (Homo sapiens) (UniProt P54762); test: Inhibition of EPHB1 (unknown origin) assessed as residual activity at 100 nM by KINOMEscan analysis relative to control
T2 sequence (whole entry): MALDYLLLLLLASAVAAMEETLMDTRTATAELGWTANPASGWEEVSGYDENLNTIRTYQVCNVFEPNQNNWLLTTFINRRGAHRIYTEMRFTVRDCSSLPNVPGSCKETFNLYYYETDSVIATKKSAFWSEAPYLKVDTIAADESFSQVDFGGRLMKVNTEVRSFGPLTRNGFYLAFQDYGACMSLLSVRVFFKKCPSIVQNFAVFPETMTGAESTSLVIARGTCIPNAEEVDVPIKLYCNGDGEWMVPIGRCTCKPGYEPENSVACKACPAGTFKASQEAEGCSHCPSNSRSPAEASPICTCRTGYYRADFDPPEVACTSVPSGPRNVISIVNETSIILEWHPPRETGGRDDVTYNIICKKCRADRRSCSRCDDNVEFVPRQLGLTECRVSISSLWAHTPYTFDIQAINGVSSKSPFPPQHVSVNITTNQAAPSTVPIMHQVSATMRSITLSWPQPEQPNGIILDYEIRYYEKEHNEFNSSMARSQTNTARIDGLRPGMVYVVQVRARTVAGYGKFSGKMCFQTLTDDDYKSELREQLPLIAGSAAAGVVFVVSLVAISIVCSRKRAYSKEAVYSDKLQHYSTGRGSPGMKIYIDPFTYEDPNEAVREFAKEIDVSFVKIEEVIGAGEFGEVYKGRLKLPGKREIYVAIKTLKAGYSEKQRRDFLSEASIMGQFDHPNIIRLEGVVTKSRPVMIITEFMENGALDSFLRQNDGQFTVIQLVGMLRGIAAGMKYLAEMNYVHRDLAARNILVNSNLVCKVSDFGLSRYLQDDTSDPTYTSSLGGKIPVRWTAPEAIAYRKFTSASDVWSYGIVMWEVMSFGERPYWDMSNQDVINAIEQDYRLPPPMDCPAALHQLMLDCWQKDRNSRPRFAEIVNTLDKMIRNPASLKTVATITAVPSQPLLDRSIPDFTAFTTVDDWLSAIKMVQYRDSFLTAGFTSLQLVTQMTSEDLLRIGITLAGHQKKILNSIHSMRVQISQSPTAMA

[4] = molecular target: T3, Ephrin type-B receptor 4 (Homo sapiens) (UniProt P54760); test: Inhibition of EPHB4 (unknown origin) assessed as residual activity at 100 nM by KINOMEscan analysis relative to control
T3 sequence (whole entry): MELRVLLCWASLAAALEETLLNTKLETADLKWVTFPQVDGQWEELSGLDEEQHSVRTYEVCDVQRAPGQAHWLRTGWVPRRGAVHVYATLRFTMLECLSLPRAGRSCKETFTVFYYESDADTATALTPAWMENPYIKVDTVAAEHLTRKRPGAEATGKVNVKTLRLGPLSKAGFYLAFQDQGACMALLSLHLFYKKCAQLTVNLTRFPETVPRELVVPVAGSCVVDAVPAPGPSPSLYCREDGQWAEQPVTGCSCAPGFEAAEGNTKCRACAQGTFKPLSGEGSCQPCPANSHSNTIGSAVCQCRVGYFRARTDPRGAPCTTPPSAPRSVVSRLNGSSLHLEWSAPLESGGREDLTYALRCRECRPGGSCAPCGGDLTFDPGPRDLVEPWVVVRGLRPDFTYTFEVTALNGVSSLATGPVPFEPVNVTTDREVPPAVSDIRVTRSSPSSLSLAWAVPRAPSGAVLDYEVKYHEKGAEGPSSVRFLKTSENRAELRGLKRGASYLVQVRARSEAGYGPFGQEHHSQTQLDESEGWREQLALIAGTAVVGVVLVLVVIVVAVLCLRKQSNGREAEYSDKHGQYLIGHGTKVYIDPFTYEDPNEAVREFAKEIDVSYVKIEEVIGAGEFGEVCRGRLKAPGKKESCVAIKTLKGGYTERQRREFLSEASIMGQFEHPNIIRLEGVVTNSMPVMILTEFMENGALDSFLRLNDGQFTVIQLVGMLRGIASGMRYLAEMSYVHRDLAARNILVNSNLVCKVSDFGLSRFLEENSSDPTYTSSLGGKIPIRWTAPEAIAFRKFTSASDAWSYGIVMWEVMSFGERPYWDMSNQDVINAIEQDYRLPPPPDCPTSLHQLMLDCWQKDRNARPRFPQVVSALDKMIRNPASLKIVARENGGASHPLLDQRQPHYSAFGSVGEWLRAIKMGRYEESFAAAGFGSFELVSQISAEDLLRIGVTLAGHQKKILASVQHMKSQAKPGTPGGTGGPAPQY

[5] = molecular target: Cyclin-dependent kinase 15 (Homo sapiens) (UniProt Q96Q40); test: Inhibition of PFTAIRE2 (unknown origin) assessed as residual activity at 100 nM by KINOMEscan analysis relative to control
Cyclin-dependent kinase 15 (Homo sapiens), sequence (Q96Q40 whole entry): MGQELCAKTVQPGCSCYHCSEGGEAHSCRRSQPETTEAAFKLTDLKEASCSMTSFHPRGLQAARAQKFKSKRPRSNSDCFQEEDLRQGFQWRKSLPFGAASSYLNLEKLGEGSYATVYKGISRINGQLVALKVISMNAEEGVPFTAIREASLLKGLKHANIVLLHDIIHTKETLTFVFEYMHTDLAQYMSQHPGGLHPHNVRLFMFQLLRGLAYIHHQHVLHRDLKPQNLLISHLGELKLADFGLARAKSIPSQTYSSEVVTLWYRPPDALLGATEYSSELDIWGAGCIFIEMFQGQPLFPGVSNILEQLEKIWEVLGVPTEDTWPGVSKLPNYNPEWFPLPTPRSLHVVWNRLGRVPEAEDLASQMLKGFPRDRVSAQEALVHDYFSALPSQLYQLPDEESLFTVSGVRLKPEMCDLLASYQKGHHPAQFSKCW

Tyrosine-protein kinase ABL1 (Homo sapiens), P00519 [F317I], sequence (P00519 whole entry F317I): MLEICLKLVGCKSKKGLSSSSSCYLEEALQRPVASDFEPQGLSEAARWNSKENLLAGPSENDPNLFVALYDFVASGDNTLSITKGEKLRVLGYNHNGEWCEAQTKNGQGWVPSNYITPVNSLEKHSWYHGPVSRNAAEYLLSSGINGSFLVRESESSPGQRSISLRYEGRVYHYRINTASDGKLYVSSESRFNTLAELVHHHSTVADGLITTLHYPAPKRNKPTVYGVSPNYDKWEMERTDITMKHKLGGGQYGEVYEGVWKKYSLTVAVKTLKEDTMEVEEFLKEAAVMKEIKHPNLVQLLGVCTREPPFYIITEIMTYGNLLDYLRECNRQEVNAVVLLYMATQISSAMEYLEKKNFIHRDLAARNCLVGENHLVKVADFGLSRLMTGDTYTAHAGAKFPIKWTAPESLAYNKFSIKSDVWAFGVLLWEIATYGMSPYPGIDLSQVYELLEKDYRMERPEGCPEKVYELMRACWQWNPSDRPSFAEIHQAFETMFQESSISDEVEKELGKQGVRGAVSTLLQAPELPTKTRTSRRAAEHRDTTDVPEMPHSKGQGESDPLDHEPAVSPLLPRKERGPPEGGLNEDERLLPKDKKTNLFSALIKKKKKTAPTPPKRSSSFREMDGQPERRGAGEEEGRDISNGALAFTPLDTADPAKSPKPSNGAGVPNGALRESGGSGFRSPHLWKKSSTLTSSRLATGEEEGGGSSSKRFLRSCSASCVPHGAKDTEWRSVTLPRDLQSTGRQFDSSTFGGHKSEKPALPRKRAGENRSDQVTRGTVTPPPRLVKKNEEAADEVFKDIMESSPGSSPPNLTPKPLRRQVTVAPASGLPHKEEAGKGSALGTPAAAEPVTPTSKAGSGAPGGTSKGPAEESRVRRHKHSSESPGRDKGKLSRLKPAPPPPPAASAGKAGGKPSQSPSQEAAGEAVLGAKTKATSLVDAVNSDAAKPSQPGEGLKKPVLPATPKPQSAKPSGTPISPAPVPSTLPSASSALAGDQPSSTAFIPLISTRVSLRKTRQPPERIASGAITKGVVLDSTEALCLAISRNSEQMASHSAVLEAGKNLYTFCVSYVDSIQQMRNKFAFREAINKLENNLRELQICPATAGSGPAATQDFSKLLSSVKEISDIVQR

SMILES: COc1cc2ncnc(N[C@H](C)c3cccc4ccccc34)c2cc1OC
- Activity [1]: 91%
- Activity [2]: 84%
- Activity [3]: 83%
- Activity [4]: 75%
- Activity [5]: 100%

Reference: ChEMBL document CHEMBL5678818, “Discovery of potent SOS1 inhibitors that block RAS activation via disruption of the RAS-SOS1 interaction” (Proc Natl Acad Sci U S A, 2019)
